What was measured:
giant foxtail = assay: Test B pre/postemergence giant foxtail; assay type: in vivo, Setaria faberii
Summary of the method: (§1)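 Herbicidal effect was estimated by eye on a ten-point control scale after plants spent twelve to sixteen days in a greenhouse following soil or foliar treatment. Foliar sprays targeted plants at one to four leaves; all doses were formulated in a non-phytotoxic solvent with surfactant.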

corn = assay: Test B pre/postemergence corn; assay type: in vivo, Zea mays
Summary of the method: as §1

rape = assay: Test B pre/postemergence rape; assay type: in vivo, Brassica napus
Summary of the method: as §1

surinam grass = assay: Test B pre/postemergence surinam grass; assay type: in vivo, Brachiaria decumbens
Summary of the method: as §1

purple nutsedge = assay: Test B pre/postemergence purple nutsedge; assay type: in vivo, Cyperus rotundus
Summary of the method: as §1

wheat = assay: Test B pre/postemergence wheat; assay type: in vivo, Triticum aestivum
Summary of the method: as §1

soybean = assay: Test B pre/postemergence soybean; assay type: in vivo, Glycine max
Summary of the method: as §1

pigweed = assay: Test B pre/postemergence pigweed; assay type: in vivo, Amaranthus retroflexus
Summary of the method: as §1

crabgrass = assay: Test B pre/postemergence crabgrass; assay type: in vivo, Digitaria sanguinalis
Summary of the method: as §1

sugar beet = assay: Test B pre/postemergence sugar beet; assay type: in vivo, Beta vulgaris
Summary of the method: as §1

wild oat = assay: Test B pre/postemergence wild oat; assay type: in vivo, Avena fatua
Summary of the method: as §1

cocklebur = assay: Test B pre/postemergence cocklebur; assay type: in vivo, Xanthium strumarium; settings: for Cocklebur plant response rating: Postemergence; for Plant response rating, Cocklebur: Preemergence
Summary of the method: as §1

blackgrass = assay: Test B pre/postemergence blackgrass; assay type: in vivo, Alopecurus myosuroides
Summary of the method: as §1

morningglory = assay: Test B pre/postemergence morningglory; assay type: in vivo, Ipomoea hederacea
Summary of the method: as §1

duck salad = assay: Test B flood test duck salad; assay type: in vivo, Heteranthera limosa; settings: Rate 125 g/ha; Postemergence section (flood test species); scale 0 to 10, 0 no effect, 10 complete control
Summary of the method: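 Plants were grown to the 2-leaf stage before treatment with test chemical, then held in a greenhouse for twelve to sixteen days. Injury was visually rated against untreated controls on a 0–10 scale, where 0 is no effect and 10 is complete control.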

velvetleaf = assay: Test B pre/postemergence velvetleaf; assay type: in vivo, Abutilon theophrasti
Summary of the method: as §1

bedstraw = assay: Test B pre/postemergence bedstraw; assay type: in vivo, Galium aparine
Summary of the method: as §1

[1] = Postemergence, Rate 62 g/ha, scale 0 to 10, 0 is no effect, 10 is complete control
[2] = Postemergence, Rate 250 g/ha, scale 0 to 10, 0 no effect, 10 complete control
[3] = Preemergence, Rate 62 g/ha, scale 0 to 10, 0 is no effect, 10 is complete control
[4] = Preemergence, Rate 125 g/ha, scale 0 to 10 (0 no effect, 10 complete control)
[5] = Preemergence, Rate 250 g/ha, scale of 0 to 10 where 0 is no effect and 10 is complete control
[6] = Preemergence, Rate 500 g/ha, scale 0 (no effect) to 10 (complete control)
[7] = Rate 125 g/ha, Postemergence, scale 0 to 10, 0 no effect, 10 complete control
[8] = Rate 500 g/ha, Postemergence, 0 to 10 scale (0 no effect, 10 complete control)
[9] = Rate 62 g/ha, scale 0 to 10, 0 is no effect, 10 is complete control

Cc1ccccc1-n1c(=O)on(C(=O)N(c2ccc(F)cc2)C2CC2)c1=O [Compound 37]
Giant foxtail plant response rating (giant foxtail; [1]): 0
Giant foxtail plant response rating (giant foxtail; [2]): 0
Plant response rating, Giant foxtail (giant foxtail; [3]): 0
Plant response rating, Giant foxtail (giant foxtail; [4]): 0
Plant response rating, Giant foxtail (giant foxtail; [5]): 2
Giant foxtail plant response rating (giant foxtail; [6]): 3
Giant foxtail plant response rating (giant foxtail; [7]): 0
Giant foxtail plant response rating (giant foxtail; [8]): 0
Corn plant response rating (corn; [1]): 0
Corn plant response rating (corn; [2]): 0
Plant response rating, Corn (corn; [3]): 0
Plant response rating, Corn (corn; [4]): 0
Plant response rating, Corn (corn; [5]): 0
Corn plant response rating (corn; [6]): 0
Corn plant response rating (corn; [7]): 0
Corn plant response rating (corn; [8]): 0
Rape plant response rating (rape; [1]): 0
Rape plant response rating (rape; [2]): 0
Plant response rating, Rape (rape; [3]): 0
Plant response rating, Rape (rape; [4]): 0
Plant response rating, Rape (rape; [5]): 0
Rape plant response rating (rape; [6]): 0
Rape plant response rating (rape; [7]): 0
Rape plant response rating (rape; [8]): 0
B. signalgrass plant response rating (surinam grass; [1]): 0
B. signalgrass plant response rating (surinam grass; [2]): 0
Plant response rating, B. signalgrass (surinam grass; [3]): 0
Plant response rating, B. signalgrass (surinam grass; [4]): 0
Plant response rating, B. signalgrass (surinam grass; [5]): 0
B. signalgrass plant response rating (surinam grass; [6]): 0
B. signalgrass plant response rating (surinam grass; [7]): 0
B. signalgrass plant response rating (surinam grass; [8]): 0
Nutsedge plant response rating (purple nutsedge; [1]): 0
Nutsedge plant response rating (purple nutsedge; [2]): 0
Plant response rating, Nutsedge (purple nutsedge; [3]): 0
Plant response rating, Nutsedge (purple nutsedge; [4]): 0
Plant response rating, Nutsedge (purple nutsedge; [5]): 0
Nutsedge plant response rating (purple nutsedge; [6]): 0
Nutsedge plant response rating (purple nutsedge; [7]): 0
Wheat plant response rating (wheat; [1]): 0
Wheat plant response rating (wheat; [2]): 0
Plant response rating, Wheat (wheat; [3]): 0
Plant response rating, Wheat (wheat; [4]): 0
Plant response rating, Wheat (wheat; [5]): 0
Wheat plant response rating (wheat; [6]): 0
Wheat plant response rating (wheat; [7]): 0
Soybean plant response rating (soybean; [1]): 0
Soybean plant response rating (soybean; [2]): 0
Plant response rating, Soybean (soybean; [3]): 0
Plant response rating, Soybean (soybean; [4]): 0
Plant response rating, Soybean (soybean; [5]): 0
Soybean plant response rating (soybean; [6]): 0
Soybean plant response rating (soybean; [7]): 0
Redroot pigweed plant response rating (pigweed; [1]): 0
Redroot pigweed plant response rating (pigweed; [2]): 0
Plant response rating, Redroot pigweed (pigweed; [3]): 0
Plant response rating, Redroot pigweed (pigweed; [4]): 0
Plant response rating, Redroot pigweed (pigweed; [5]): 0
Redroot pigweed plant response rating (pigweed; [6]): 0
Redroot pigweed plant response rating (pigweed; [7]): 0
Redroot pigweed plant response rating (pigweed; [8]): 0
Crabgrass plant response rating (crabgrass; [1]): 0
Crabgrass plant response rating (crabgrass; [2]): 0
Plant response rating, Crabgrass (crabgrass; [3]): 0
Plant response rating, Crabgrass (crabgrass; [4]): 0
Plant response rating, Crabgrass (crabgrass; [5]): 3
Crabgrass plant response rating (crabgrass; [6]): 5
Crabgrass plant response rating (crabgrass; [7]): 0
Crabgrass plant response rating (crabgrass; [8]): 3
Sugarbeets plant response rating (sugar beet; [1]): 0
Sugarbeets plant response rating (sugar beet; [2]): 0
Plant response rating, Sugarbeets (sugar beet; [3]): 0
Plant response rating, Sugarbeets (sugar beet; [4]): 0
Plant response rating, Sugarbeets (sugar beet; [5]): 0
Sugarbeets plant response rating (sugar beet; [6]): 0
Sugarbeets plant response rating (sugar beet; [7]): 0
Wild oats plant response rating (wild oat; [1]): 0
Wild oats plant response rating (wild oat; [2]): 0
Plant response rating, Wild oats (wild oat; [4]): 0
Plant response rating, Wild oats (wild oat; [5]): 0
Wild oats plant response rating (wild oat; [6]): 0
Wild oats plant response rating (wild oat; [7]): 0
Cocklebur plant response rating (cocklebur; [9]): 0
Cocklebur plant response rating (cocklebur; Rate 250 g/ha, scale 0 to 10, 0 no effect, 10 complete control): 0
Plant response rating, Cocklebur (cocklebur; [9]): 0
Plant response rating, Cocklebur (cocklebur; Rate 125 g/ha, scale 0 to 10 (0 no effect, 10 complete control)): 0
Plant response rating, Cocklebur (cocklebur; Rate 250 g/ha, scale of 0 to 10 where 0 is no effect and 10 is complete control): 0
Cocklebur plant response rating (cocklebur; Rate 125 g/ha, scale 0 to 10, 0 no effect, 10 complete control): 0
Cocklebur plant response rating (cocklebur; Rate 500 g/ha, 0 to 10 scale (0 no effect, 10 complete control)): 1
Blackgrass plant response rating (blackgrass; [1]): 0
Blackgrass plant response rating (blackgrass; [2]): 0
Plant response rating, Blackgrass (blackgrass; [3]): 0
Plant response rating, Blackgrass (blackgrass; [4]): 0
Plant response rating, Blackgrass (blackgrass; [5]): 0
Blackgrass plant response rating (blackgrass; [6]): 0
Blackgrass plant response rating (blackgrass; [7]): 0
Blackgrass plant response rating (blackgrass; [8]): 0
Morningglory plant response rating (morningglory; [1]): 0
Morningglory plant response rating (morningglory; [2]): 0
Plant response rating, Morningglory (morningglory; [3]): 0
Plant response rating, Morningglory (morningglory; [4]): 0
Plant response rating, Morningglory (morningglory; [5]): 0
Morningglory plant response rating (morningglory; [6]): 0
Morningglory plant response rating (morningglory; [7]): 0
Morningglory plant response rating (morningglory; [8]): 1
Ducksalad plant response rating (duck salad): 0
Velvetleaf plant response rating (velvetleaf; [1]): 0
Velvetleaf plant response rating (velvetleaf; [2]): 0
Plant response rating, Velvetleaf (velvetleaf; [3]): 0
Plant response rating, Velvetleaf (velvetleaf; [4]): 0
Plant response rating, Velvetleaf (velvetleaf; [5]): 0
Velvetleaf plant response rating (velvetleaf; [6]): 0
Velvetleaf plant response rating (velvetleaf; [7]): 0
Bedstraw plant response rating (bedstraw; [1]): 0
Bedstraw plant response rating (bedstraw; [2]): 0
Plant response rating, Bedstraw (bedstraw; [3]): 0
Plant response rating, Bedstraw (bedstraw; [4]): 0
Plant response rating, Bedstraw (bedstraw; [5]): 0
Bedstraw plant response rating (bedstraw; [6]): 0
Bedstraw plant response rating (bedstraw; [7]): 0
Bedstraw plant response rating (bedstraw; [8]): 0

Reference: patent publication US6737383B1, “Herbicidal oxadiazolidines” (priority 1999, dated 2004)
